Data from patent US9839614B2, “Nanoparticle and polymer formulations for thyroid hormone analogs, antagonists, and formulations and uses thereof” (NANOPHARMACEUTICALS LLC, priority 2009, dated 2017).

Legend:
[1] = test system: GL261 murine brain tumor cells; test: GL261 sublethal damage repair (SLDR), split dose; format: cell-based
Protocol: SLDR was measured at 10% immediate survival level as determined from the acute single dose curve for both control and Tetrac-treated cells in both growth states (i.e. exponentially growing and plateau phase cells. Flasks were irradiated with one-half of the total dose and returned to the 37° C. incubator. At increasing periods of time, flasks were removed, and given the second half of the immediate 10% survival dose. Survival was measured at 0, 0.5, 1.0, 1.5, 2.0, 3.0, 4.0, 6.0, 8.0, and 10.0 hours after the initial dose.
To investigate the effects of tetrac on SLDR and PLDR, cells were chosen that had been given a one-hour treatment with tetrac at two different times, i.e., at 70 and 270 hours post-seeding).

[2] = test system: SKN-SH, SaOS2 and MCF7 cells, drug-sensitive and -resistant; test: Proliferation of drug-sensitive versus drug-resistant cancer cells (MTT assay); format: cell-based; conditions: 4 days
Protocol: Drug-sensitive and -resistant SKN-SH (FIGS. 13C-D), SaOS2 (FIGS. 13A-B), and MCF7 (FIGS. 13E-F) cells were subjected to treatment with increasing concentrations of Tetrac or Doxirubicin over a period of 4 days. Cell viability was then measured by MTT assay. The data represent the average of 4 determinations±SE.
Doxorubicin resistant SKN-SH/R, MCF7/R and SaOS2/R cells were subjected to treatment with Tetrac either alone or in combination with each of doxorubicin (Dox), etoposide (Etop), cisplatin (Cisp), or trichostatin A (TSA) at the indicated concentrations, After 4 days in cell viability was determined by the MTT assay and the data represented as average of 3 determinations±SE.

[3] = test system: SKN-SH/R cells; test: Senescence and apoptosis in drug resistant cells; format: cell-based; conditions: 24 h
Protocol: In FIG. 16A, SKN-SH/R cells were subjected to treatment doxorubicin (Dox) alone, Tetrac alone, or the combination of both for 24 h. Expression of p21/WAF1, cleaved caspase-3 (Cl-Casp-3) and beta action were measured by Western blot using specific antibodies.
FIG. 16B discloses the cells were seeded in 24 well plates and treated as mentioned above and expression of the senescence associated beta galactosidase (SA-β-Gal.) was assayed as described in the methods section.
FIG. 16C discloses the cells were seeded on cover slips and treated with the drugs as above for 24 h, after which they were fixed and stained with Hoechst and the percentage of positive cells graphed. The data represent average of 3 determinations±SE.

[4] = test system: chick chorioallantoic membrane (CAM) blood vessel branching; test: Chorioallantoic membrane (CAM) model of angiogenesis; format: in vivo
Protocol: In vivo neovascularization was examined by methods described previously. 9-12 Ten-day-old chick embryos were purchased from SPAFAS (Preston, Conn.) and incubated at 37° C. with 55% relative humidity. A hypodermic needle was used to make a small hole in the shell concealing the air sac, and a second hole was made on the broad side of the egg, directly over an avascular portion of the embryonic membrane that was identified by candling. A false air sac was created beneath the second hole by the application of negative pressure at the first hole, causing the CAM to separate from the shell. A window approximately 1.0 cm^2 was cut in the shell over the dropped CAM with a small-crafts grinding wheel (Dremel, division of Emerson Electric Co.), allowing direct access to the underlying CAM. […] Sterile disks of No. 1 filter paper (Whatman International) were pretreated with 3 mg/mL cortisone acetate and 1 mmol/L PTU and air dried under sterile conditions. Thyroid hormone, hormone analogs, FGF2 or control solvents, and inhibitors were then applied to the disks and the disks allowed to dry. The disks were then suspended in PBS and placed on growing CAMs. […] At 24 hours, the MAPK cascade inhibitor PD 98059 was also added to CAMs topically by means of the filter disks.
After incubation at 37° C. with 55% relative humidity for 3 days, the CAM tissue directly beneath each filter disk was resected from control and treated CAM samples. Tissues were washed 3× with PBS, placed in 35-mm Petri dishes (Nalge Nunc), and examined under an SV6 stereomicroscope (Zeiss) at X50 magnification. Digital images of CAM sections exposed to filters were collected using a 3-charge-coupled device color video camera system (Toshiba) and analyzed with Image-Pro software (Media Cybernetics). The number of vessel branch points contained in a circular region equal to the area of each filter disk were counted. One image was counted in each CAM preparation, and findings from 8 to 10 CAM preparations were analyzed for each treatment condition (thyroid hormone or analogs, FGF2, FGF2 antibody, PD 98059). In addition, each experiment was performed 3 times. The resulting angiogenesis index is the mean±SEM of new branch points.

[5] = test system: human medullary carcinoma of the thyroid (MTC) xenografts; test: MTC xenograft in nude mice; conditions: over the course of administration
Protocol: Human medullary carcinoma cells (TT, Catalog No. CRL-1803) were purchased from American Type Culture Collection (Manassas, Va.) and cultured as instructed by the supplier, using a complete growth medium consisting of F-12K medium with 10% FBS. Cells were cultured in 5% CO2/air atmosphere at 37 C to sub-confluence and then treated with 0.25% (w/v) trypsin/EDTA to affect cell release from the culture vessel. After washing with culture medium, the cells were suspended in DMEM (free of phenol red and FBS) and counted. • Tetrac versus tetrac NP distribution in h-MTC. […] Female NCr nude homozygous mice aged 5-6 weeks and body weights of 20 g were purchased form Taconic Farms (Hudson N.Y.). Animals were maintained under specific pathogen-free conditions and housed 4 animals per cage, under controlled conditions of temperature (20-24° C.) and humidity (60-70%) and a 12 h light/dark cycle. Water and food were provided ad libitum.

[6] = molecular target: TTR (Homo sapiens, UniProt P02766); conditions: cited from earlier work
[7] = test system: MCF7 and MCF7/R cells; test: Intracellular accumulation of radiolabeled doxorubicin; format: cell-based; conditions: 24 hours, presence of Tetrac
Protocol: The cells were incubated for 24 hours with doxorubicin in the absence or the presence of Tetrac, after that they were washed and then solubilized. Radioactivity associated with the cell lysates was counted and compared between the two cell lines either treated or not with Tetrac. The data represent an average of 3 determinations±SE.

[8] = test system: P-gp, GST and SOD in MCF7/R cells; test: Western blot of drug resistance genes; format: cell-based; conditions: 24 h
Protocol: FIG. 15A is a Western blot showing the expression of P-gp, GST and SOD in wild type (W) drug sensitive and resistant (R) MCF7 cells.
The cells were treated for 24 h with each drug alone or the combination of both, after that, expression of drug resistance molecules was determined by Western blot using specific antibodies.

[9] = test system: Human medullary carcinoma of the thyroid (MTC) cells; test: Tumor growth and angiogenesis in the CAM cancer implant model; format: in vivo, chick; conditions: 1 μg/CAM, 8 days, n=8
Excerpt: Penicillin streptomycin (1%) was present in both culture media. […] Water and food were provided ad libitum.

O=C(O)Cc1cc(I)c(Oc2cc(I)c(O)c(I)c2)c(I)c1 [Tetrac, tetraiodothyroacetic acid]
cellular repair of x-ray damage (FIG. 58) ([1]; Tetrac 2 uM, 6 to 8 hours post-irradiation): no repair of x-ray damage
SLDR recovery ratio ([1]; exponential Tetrac-treated cells, 2 hours after the first dose): 1.8
factor of reduction of SLDR ([1]; exponential cells): 1.8
factor of decrease in cellular repair ([1]; plateau phase cells, three hours post-irradiation): ~3
survival relative to survival at 0 hours ([1]; plateau phase, 3 hours after the initial dose): approximately 36%
anti-proliferative activity against drug-sensitive and drug-resistant cells ([2]; MTT): equivalent anti-proliferative activity
cellular responses to doxorubicin, etoposide, cisplatin and TSA combined with Tetrac ([2]; resistant cells): significantly enhanced
doxorubicin-induced proliferation arrest, SA-β-Gal and cell death [3]: dramatically enhanced
Mean % Inhibition ([4]; FGF (1.25 μg/ml) + Tetrac or analog at 10 μg/plug): 85%
effect on action of T4 on angiogenesis ([4]; Tetrac 0.1 μmol/L with T4): inhibited the action of T4
effect of Tetrac alone on angiogenesis ([4]; Tetrac alone): no effect on angiogenesis
effect on action of T4-agarose on angiogenesis ([4]; Tetrac with T4-agarose 0.1 μmol/L): inhibited
decrease in tumor tissue hemoglobin content [5]: 66%
affinity of TTR for Tetrac relative to that for T4 [6]: 100 times
intracellular accumulation of radiolabeled doxorubicin [7]: increased significantly
expression of P-glycoprotein, SOD, and GST-π [8]: none of these genes was significantly altered
tumor growth [9]: effective inhibition
tumor-mediated angiogenesis [9]: significant inhibition
